Reference: article PMC12089418, “Quantifying VMAT2 target occupancy at effective valbenazine doses and comparing to a novel VMAT2 inhibitor: a translational PET study” (Neuropsychopharmacology, 2025)
Like-named read-outs stand apart in the source and are kept apart here.

Columns and labels:
[1] = Plasma protein binding by equilibrium dialysis, cynomolgus monkey plasma; assay type: in vitro ADME, cynomolgus monkeys; conditions: both sexes, pooled plasma, read-out: fraction unbound in plasma (fu_p)
VMAT2 [2] = target: T1, VMAT2 (Macaca fascicularis, UniProt A0A2K5UVB8); parameters: method as in PMID 32122751; conditions: bolus administration; radioligand [+]-α-[11C]dHTBZ; cited from earlier work
Target sequence in this assay (A0A2K5UVB8 1-517): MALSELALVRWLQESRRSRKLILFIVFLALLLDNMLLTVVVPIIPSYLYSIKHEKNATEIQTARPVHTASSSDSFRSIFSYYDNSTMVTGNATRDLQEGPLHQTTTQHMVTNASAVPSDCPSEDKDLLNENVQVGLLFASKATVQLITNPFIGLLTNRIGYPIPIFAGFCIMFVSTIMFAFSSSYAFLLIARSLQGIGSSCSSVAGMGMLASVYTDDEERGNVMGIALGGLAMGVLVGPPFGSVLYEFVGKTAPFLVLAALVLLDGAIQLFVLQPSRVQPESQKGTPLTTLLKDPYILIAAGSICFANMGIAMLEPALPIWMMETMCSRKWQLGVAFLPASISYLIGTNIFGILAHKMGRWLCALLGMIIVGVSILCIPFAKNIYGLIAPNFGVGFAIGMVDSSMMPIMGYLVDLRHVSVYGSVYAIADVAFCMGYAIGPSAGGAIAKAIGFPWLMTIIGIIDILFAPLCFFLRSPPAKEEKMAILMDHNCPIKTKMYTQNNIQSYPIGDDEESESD

other targets = system: other targets; parameters: method as in PMID 28776237, PMID 28404690, PMID 29680151; conditions: cited from earlier work
VMAT2 [3] = conditions: cited from earlier work
VMAT2 [4] = target: T2, VMAT2 (Rattus norvegicus, UniProt Q01827); experiment: Rat NBI-98782 PK-%TO study; assay type: in vivo; conditions: Data on file
T2 construct: from tissue; host or cells: rats dosed in vivo; tissue and read-out method not described

VMAT2 [5] = target: T3, VMAT2 (Homo sapiens, UniProt Q05940); experiment: In vitro Ki for affinity to VMAT2, human; assay type: binding
Excerpt: Ki values for compound affinity to VMAT2 were generated from human platelet homogenates as described in [18].

VMAT2 [6] = target: T1, VMAT2; experiment: NHP [18F]AV-133 PET target occupancy; assay type: in vivo, cynomolgus macaques; conditions: for EC50: Emax model
Protocol: Each NHP PET study enrolled two to three cynomolgus macaques, (3.8–9 year age range).
NHPs fasted overnight before individual PET scans. For the NBI-750142 study, 60 min prior to NBI-750142 or vehicle administration, animals were sedated with an intramuscular injection of 2 mg/kg Aflaxan, 0.02 mg/kg dexmedetomidine, and 0.3 mg/kg midazolam. The animals were intubated with an endotracheal tube for continued delivery of oxygen (1.5–2.5 L) and 1.0–2.5% isoflurane for anesthesia maintenance.
The animals were intubated with an endotracheal tube for continued delivery of isoflurane for anesthesia maintenance.
For all NHP PET scans, blocking compound was administered with a bolus loading dose, followed by constant intravenous infusion over 3 h, with the goal of achieving steady-state plasma exposure. One hour after blocking compound or vehicle administration, [^18F]AV-133 was administered as an intravenous bolus. Dynamic PET data were acquired with a MicroPET Focus-220 camera (Siemens Microsystems, Knoxville, TN) for 120 min post injection and reconstructed into a series of 33 frames and all standard corrections were applied for normalization, randoms, scatter, and attenuation. Brain PET images were analyzed using PMOD software package v3.802 (PMOD Technologies, Zurich, Switzerland). […]
During each scan, 1 mL whole blood PK samples were collected (in K2 EDTA tubes) at multiple time points. Blocking compound concentration in plasma samples were analyzed using validated LC-MS/MS bioanalytical methods. […] The average plasma concentration, Cave, was calculated as the mean compound concentration of samples collected during the PET scan and used for PK-TO analysis.
Time-activity curves were generated for the caudate, putamen, and cerebellum. Non-displaceable binding potential (BPND) was estimated using non-invasive Logan graphical analysis with cerebellum as reference region. %TO of the blocking compound was calculated in the caudate and putamen using baseline and post-dose BPND as follows:1 %TO=1−BPNDpost−block/BPNDbaselinex100 […]
Target sequence in this assay (A0A2K5UVB8 entry or part of it): as the sequence (A0A2K5UVB8 1-517) above

VMAT2 [7] = target: T3, VMAT2; experiment: Human [18F]AV-133 PET target occupancy; assay type: in vivo; parameters: from tissue; host or cells: brain of healthy male volunteers (caudate, putamen); conditions: for URF (upregulation factor): upregulation model
Excerpt: The human PET study was approved by the IRB (Approval number: Pro00037529). All participants gave their written informed consent prior to participation in the study. Twelve healthy male subjects were enrolled in cohorts of 2–4 subjects each. Subjects were 29–54 years of age (mean of 43.2 years), and the study had standard inclusion/exclusion criteria, with attention to avoiding drugs which may interfere with the [^18F]AV-133 measurements or with NBI-750142 metabolism.
Subjects fasted during the study and received a small, predefined snack at least 2 h prior to oral dosing of NBI-750142. Consumption of alcohol, caffeine, nicotine or cannabis products, and grapefruit or grapefruit juice was prohibited during the study. One PET scan occurred ~1.5 h following administration of NBI-750142, and a second ~18 h post NBI-750142. These scans are referred to as “T1” and “T2,” respectively, throughout this study (Supplementary Fig. 1). T1 scans were timed to occur at approximately the time to reach maximal plasma concentration, Tmax, and provide the closest comparison to the NHP PET measurements. T2 scans should contribute data points to the lower NBI-750142 concentration portion of the PK-%TO curve and potentially reveal dose-response hysteresis (reviewed in ref. [22]). A total of five cohorts were enrolled in the study in an adaptive design, with two subjects enrolled in each cohort, except for four subjects in cohort 5. NBI-750142 doses in these cohorts ranged from 10 to 200 mg. Blood samples were obtained from each participant immediately before [^18F]AV-133 injection and just before the end of the PET scan in order to quantify plasma concentration of NBI-750142. The Cave derived from these two values was used to compare against %TO.
Prior to the radiotracer injection and PET, a low-dose CT scan was collected for attenuation correction. Subjects were administered a single dose of [^18F]AV-133 intravenously over 3 min using an infusion pump (~3.33 mL per min) through a venous catheter followed by a 10 mL saline flush. Dynamic PET imaging of the brain was acquired over 120 min following radiotracer injection on a Siemens Biograph 6 PET/CT camera with the following frame times: 6 × 30 s, 4 × 1 min, 4 × 2 min, 21 × 5 min (0–120 min). Images were reconstructed with a 168 × 168 × 81 matrix (pixel size of 2.03 mm × 2.03 mm) using an iterative reconstruction algorithm (OSEM 4 iterations, 16 subsets) and a post hoc Gaussian filter FWHM = 3 mm. Standard corrections for random, scatter, system dead time, and attenuation provided by the camera manufacturer were performed. A T1 MRI scan was acquired from eligible subjects as part of the screening visit, to identify and delineate brain anatomical regions of interest for individual PET images. MRI scans were obtained on a Siemens Espree 1.5 Tesla clinical magnet.
Reconstructed PET images were motion and decay corrected, realigned to the subject MRI and subsequently normalized into standard MNI (Montreal Neurological Institute) space using PMOD. Volumes of interest (VOIs) were defined from a template (Hammers, N30R83). Average activity concentration within each VOI was determined and time activity curves (TACs) were generated. TACs were extracted from the following VOIs: caudate and putamen (striatum), and occipital cortex. BPND, the primary outcome measure, was estimated with noninvasive Logan graphical analysis […] 1. The relationship between %TO (averaged between caudate and putamen) and average plasma concentration during the scan was analyzed with an Emax model (Eq. 2) and an upregulation model (Eq. 4), which incorporates an upregulation factor (URF; [24]).4 %TO=Drug−EC50Drug/Drug+EC50(URF−1)/Drug+EC50

VMAT2 [8] = target: T1, VMAT2; experiment: In vitro Ki for affinity to VMAT2, NHP; assay type: binding
Target sequence in this assay (A0A2K5UVB8 1-517): as above

VMAT2 [9] = target: T3, VMAT2; experiment: Estimated human VMAT2 %TO from human PK and NHP PET free EC50; assay type: in vivo; parameters: from tissue; host or cells: brain of healthy male volunteers (caudate, putamen)
Protocol: (§1) Valbenazine human plasma exposure metrics in patients were estimated with a population pharmacokinetic (PK) analysis and plasma protein binding (PPB) data. […] These steady-state concentrations, in conjunction with free EC50 from NHP PET for blocking compounds was used to estimate %TO in humans. Plasma concentrations of NBI-750142 following 60 mg BID dose were estimated using plasma concentrations following a single oral dose of 60 mg NBI-750142 using the principle of superposition.

[10] = Human steady-state plasma exposure (population PK / superposition); assay type: in vivo; conditions: 60 mg NBI-750142 BID
Protocol: as §1

[11] = Plasma protein binding by equilibrium dialysis, human plasma; assay type: in vitro ADME, humans; conditions: both sexes, pooled plasma, read-out: fraction unbound in plasma (fu_p)
VMAT2 [12] = target: T1, VMAT2; experiment: [18F]AV-133 baseline PET test-retest; assay type: in vivo, cynomolgus macaques; conditions: 2 NHPs, caudate and putamen, baseline scans ~5 months apart
Protocol: Test-retest variability of BPND in the caudate and putamen were calculated as3 TRTV%=100xBPND1−BPND2/(BPND1+BPND2)/2
Target sequence in this assay (A0A2K5UVB8 entry or part of it): as the sequence (A0A2K5UVB8 1-517) above

TD patients = system: TD patients; parameters: method as in PMID 28320223; conditions: 6 weeks, cited from earlier work
[13] = system: chorea associated with Huntington’s Disease; parameters: method as in PMID 37210099; conditions: valbenazine 80 mg; cited from earlier work
[14] = 60 mg NBI-750142 BID, NHP PET free EC50 6.7 ng/mL
[15] = estimated from single 60 mg oral dose by superposition
[16] = 40 mg VBZ QD, from free NBI-98782 and NHP PET EC50
[17] = 80 mg VBZ QD, from free NBI-98782 and NHP PET EC50

T3 sequence (Q05940 whole entry): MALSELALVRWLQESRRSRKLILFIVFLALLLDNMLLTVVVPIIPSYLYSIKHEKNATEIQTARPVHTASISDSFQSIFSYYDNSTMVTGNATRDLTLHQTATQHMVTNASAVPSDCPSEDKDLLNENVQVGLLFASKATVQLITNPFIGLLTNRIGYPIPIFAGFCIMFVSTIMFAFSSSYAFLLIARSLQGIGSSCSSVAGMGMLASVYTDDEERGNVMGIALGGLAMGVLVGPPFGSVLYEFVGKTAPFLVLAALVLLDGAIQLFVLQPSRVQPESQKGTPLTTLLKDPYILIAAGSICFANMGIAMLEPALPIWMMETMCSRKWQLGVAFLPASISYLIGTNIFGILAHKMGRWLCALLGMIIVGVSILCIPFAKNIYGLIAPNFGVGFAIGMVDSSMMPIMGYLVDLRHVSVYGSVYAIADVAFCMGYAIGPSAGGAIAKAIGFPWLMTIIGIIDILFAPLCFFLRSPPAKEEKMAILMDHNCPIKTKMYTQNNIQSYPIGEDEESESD
T2 sequence (Q01827 whole entry): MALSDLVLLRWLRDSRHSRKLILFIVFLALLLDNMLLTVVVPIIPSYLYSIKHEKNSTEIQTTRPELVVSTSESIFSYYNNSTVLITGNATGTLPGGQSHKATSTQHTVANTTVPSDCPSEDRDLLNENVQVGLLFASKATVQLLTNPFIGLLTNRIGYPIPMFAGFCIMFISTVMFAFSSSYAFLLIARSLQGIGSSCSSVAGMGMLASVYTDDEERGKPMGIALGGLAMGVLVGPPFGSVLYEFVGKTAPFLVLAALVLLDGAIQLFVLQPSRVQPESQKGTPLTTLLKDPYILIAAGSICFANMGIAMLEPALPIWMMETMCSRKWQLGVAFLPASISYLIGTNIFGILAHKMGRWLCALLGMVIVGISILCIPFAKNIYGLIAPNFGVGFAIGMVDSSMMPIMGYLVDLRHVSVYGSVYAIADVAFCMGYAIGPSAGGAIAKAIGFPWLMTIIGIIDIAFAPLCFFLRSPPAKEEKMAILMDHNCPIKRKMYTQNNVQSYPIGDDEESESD

In the case of `COc1cc2c(cc1OC)C1CC(O)C(CC(C)C)CN1CC2` (stereo not drawn) [NBI-98782, (+)-α-dHTBZ (dihydrotetrabenazine)], the fraction unbound [1] is given as 0.4, the “ED50 (dose vs VMAT2 occupancy)” value (VMAT2 [2]) is given as 0.055 mg/kg and the “inhibition of other targets” value (other targets) is given as “minimal to non-detectable inhibition”. For the same compound, the “potency at VMAT2” value (VMAT2 [3]) was “nanomolar potency” and the “NBI-98782 PK-%TO relationship, valbenazine-dosed vs NBI-98782-dosed rats” value (VMAT2 [4]) was “nearly identical”.
For `COc1cc2c(cc1OC)[C@H]1CN(C)[C@H](CC(C)(C)C)CN1CC2` [NBI-750142], the fraction unbound [1] was 0.59, the Ki (VMAT2 [5]) was 27.7 nM and the “EC50:Ki Ratio” value (VMAT2 [6]; NHP, free PET EC50 over in vitro Ki) was 1.1. The EC50 (VMAT2 [6]; total compound Cave during 120-min scan, read-out: EC50 (average total plasma concentration vs %TO) (converted)) was 33.1 nM, the EC50 (VMAT2 [6]; total concentration multiplied by fu_p, read-out: free EC50 (free plasma concentration vs %TO) (converted)) was 20.2 nM and the “EC50:Ki Ratio” value (VMAT2 [7]; Human, free PET EC50 over in vitro Ki) was 1.4. For the same compound, the EC50 (VMAT2 [7]; T1 and T2, occipital cortex reference, read-out: EC50, Emax model (converted)) was 105 nM, the “URF (upregulation factor)” value (VMAT2 [7]; T1 and T2, white matter reference) was 1.9 and the EC50 (VMAT2 [7]; T1 and T2, white matter reference (post hoc), read-out: EC50, Emax model (converted)) was 93.2 nM. The EC50 (VMAT2 [7]; T1 and T2, white matter reference (post hoc), read-out: EC50, upregulation model (converted)) was 33.1 nM, the EC50 (VMAT2 [7]; T1 and T2 data, occipital cortex reference, read-out: EC50, upregulation model (converted)) was 18.9 nM and the “URF (upregulation factor)” value (VMAT2 [7]; T1 and T2 data, occipital cortex reference) was 2.8. The EC50 (VMAT2 [7]; T1 scans (~[…] post oral dose), Emax model, occipital cortex reference, read-out: total EC50 (average total plasma concentration vs %TO) (converted)) was 75.8 nM, the EC50 (VMAT2 [7]; T1 scans, Emax model, WM-derived BPND (post hoc), read-out: total EC50, white matter reference (converted)) was 74.6 nM and the EC50 (VMAT2 [7]; T1 scans, Emax model, total concentration multiplied by fu_p, read-out: free EC50 (free plasma concentration vs %TO) (converted)) was 37.9 nM. For the same compound, the “VMAT2 occupancy at T2” value (VMAT2 [7]; T2 scans ~18 h post NBI-750142, occipital cortex reference) was “negative occupancy”, the “average striatal occupancy at T2” value (VMAT2 [7]; T2 time points (~18 h post dose), WM-derived values) was 0.09% and the Ki (VMAT2 [8]) was 18.3 nM. For the same compound, the “VMAT2 %TO estimations” value (VMAT2 [9]; 60 mg NBI-750142 BID (acceptable doses), Ctrough to Cmax) was 36–78%, the “VMAT2 %TO at Cavg” value (VMAT2 [9]; [14]) was 67% and the “VMAT2 %TO at Cmax” value (VMAT2 [9]; [14]) was 78%. For the same compound, the “VMAT2 %TO at Ctrough” value (VMAT2 [9]; [14]) was 36%, the “Cavg, total” value [10, 15] was 27.7 ng/mL and the “Cmax, total” value [10, 15] was 48.1 ng/mL. The “Ctrough, total” value [10, 15] was 7.6 ng/mL, the “Cavg, free” value ([10]; total x fu_p) was 13.9 ng/mL and the “Cmax, free” value ([10]; total x fu_p) was 24.1 ng/mL. The “Ctrough, free” value ([10]; total x fu_p) was 3.8 ng/mL and the fraction unbound [11] was 0.5.
For `COc1cc2c(cc1OCCC[18F])CCN1C[C@@H](CC(C)C)[C@H](O)C[C@H]21` [[^18F]AV-133], the “test-retest variability of baseline BPND” value (VMAT2 [12]) was less than 10%.
For `COc1cc2c(cc1OC)[C@H]1C[C@@H](OC(=O)[C@@H](N)C(C)C)[C@H](CC(C)C)CN1CC2` [valbenazine], the “Cohen's d, AIMS score reduction” value (TD patients; valbenazine 40 mg once daily oral) is given as 0.5, the “patients with robust AIMS response (>50% reduction from baseline)” value (TD patients; valbenazine 40 mg) is given as 24% and the “Cohen's d, AIMS score reduction” value (TD patients; valbenazine 80 mg once daily oral) is given as 0.9. The “patients with robust AIMS response (>50% reduction from baseline)” value (TD patients; valbenazine 80 mg) was 40%, the “Cohen's d, chorea” value [13] was 0.9 and the “VMAT2 %TO at Cavg” value (VMAT2 [9]; [16]) was ~ 80%. The “VMAT2 %TO at Cmax” value (VMAT2 [9]; [16]) was 82%, the “VMAT2 %TO at Ctrough” value (VMAT2 [9]; [16]) was 73% and the “VMAT2 %TO at Cavg” value (VMAT2 [9]; 40 mg VBZ QD, from free NBI-98782 and NHP PET EC50, listed as VBZ) was 79%. For the same compound, the “VMAT2 %TO at Cavg” value (VMAT2 [9]; [17]) was 89%, the “VMAT2 %TO at Cmax” value (VMAT2 [9]; [17]) was 91% and the “VMAT2 %TO at Ctrough” value (VMAT2 [9]; [17]) was “above 85%”. For the same compound, the “VMAT2 %TO at Ctrough” value (VMAT2 [9]; 80 mg VBZ QD, from free NBI-98782 and NHP PET EC50, listed as VBZ) was 85%, the “VMAT2 %TO estimations at steady state” value (VMAT2 [9]; 80 mg valbenazine daily, Ctrough to Cmax) was ~ 90% and the “VMAT2 occupancy achieved by once daily valbenazine treatment” value (VMAT2 [9]; 40 and 80 mg once daily) was 80–90%. For the same compound, the “potency at VMAT2 relative to NBI-98782 (fold less potent)” value (VMAT2 [3]; parent compound vs active metabolite) was ~ 40 fold.
